Laboratory results published in USH1551H, “Topical composition and method for reducing hair loss from human scalp” (priority 1982, dated 1996).

Experiments:
[1] = biological target: T1, testosterone-5α-reductase (Mesocricetus auratus, UniProt C7T2J7); experiment: Inhibitory effect on the reductase activity (testosterone reduced to 5α-DHT, hamster sebaceous gland); type: biochemical; settings: for inhibition at 100 µM: 10^-4 molar concentration; for inhibition at 100 µM / inhibition at 10 µM: read-out: Rate of inhibition (reductase activity); for inhibition at 10 µM: 10^-5 molar concentration
T1 construct: by using the sebaceous gland at the back of a hamster; from tissue; host or cells: sebaceous gland at the back of a hamster
T1 sequence (C7T2J7 1-255): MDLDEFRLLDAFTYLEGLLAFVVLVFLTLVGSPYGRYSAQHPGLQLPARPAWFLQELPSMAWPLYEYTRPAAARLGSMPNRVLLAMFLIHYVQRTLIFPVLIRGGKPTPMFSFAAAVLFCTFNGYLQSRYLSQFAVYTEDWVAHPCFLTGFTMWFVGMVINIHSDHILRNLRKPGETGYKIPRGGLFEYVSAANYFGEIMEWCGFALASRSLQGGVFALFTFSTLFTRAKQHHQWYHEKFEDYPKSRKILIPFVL
Protocol: Based on the method of Takayasu et al. (The Nishinihon Journal of Dermatology, 43, 1215-1217, 1981), the amount of testosterone reduced to 5α-DHT was measured by using the sebaceous gland at the back of a hamster. The concentrations of the samples used in the experiment were 10^-4 and 10^-5 molar concentrations, respectively. The rate of inhibition was calculated from the following equation using the resulting data.
Rate of inhibition (%)=(C-t/C) ×100
C: the amount of 5α-DHT formed in a control
t: the amount of 5α-DHT formed when the sample was added

5α-DHT receptor protein = experiment: Inhibitory effect on binding of 5α-DHT with the receptor protein; settings: for Rate of inhibition (binding of 5α-DHT with the receptor protein): 10^-6 molar concentration
Protocol: Based on the method of Takayasu et al. (Arch. Dermatol. Res., 264, 50-51, 1979), the amount of 5α-DHT bound with the receptor protein was measured. The concentration of the sample used in the experiment was 10^-6 molar concentration. The rate of inhibition was calculated from the following equation using the resulting data.
Rate of inhibition (%)=(C-t/C)×100
C: the amount of 5α-DHT bound with the receptor protein in a control
t: the amount of 5α-DHT bound with the receptor protein when the sample was added

[2] = Acute toxicity (LD50) of oxendolone, rat; settings: in vivo
Excerpt: (§1) The systemic acute toxicity of oxendolone is as follows:
(§2) Acute Toxicity (LD50 : mg/kg)

[3] = test system: head sebum / basal cells of hair; experiment: Decrease of head sebum and mitosis of basal cells of hair; settings: coupled with the defatting actions of ethanol
[4] = Acute toxicity (LD50) of oxendolone, mouse; settings: in vivo
Excerpt: as §1, §2

hair and scalp = experiment: Toxicity test of the present hair grower (local application); type: in vivo, human; settings: 0.2% ethanol solution
[5] = test system: uptake of testosterone into the cells; experiment: Inhibition of uptake of testosterone into the cells; type: cell-based
[6] = test system: MPB (male pattern baldness); experiment: Clinical cases, male pattern baldness (MPB), topical application; type: in vivo, human; settings: The patient; Resorcinol and other lotions for application
Excerpt: The following preparations were used in the tests (1)-(22). MPB represents male pattern baldness.

C[C@]12CC[C@H]3[C@@H](CCC4=CC(=O)CC[C@@]43C)[C@@H]1CC[C@@H]2C(=O)O [4-androsten-3-one-17β-carboxylic acid]
inhibition at 100 µM [1]: 54 ± 32% | inhibition at 10 µM [1]: 31 ± 19% | Rate of inhibition (binding of 5α-DHT with the receptor protein) (5α-DHT receptor protein): 0%

CC[C@H]1C[C@H]2[C@@H]3CCC4=CC(=O)CC[C@@H]4[C@H]3CC[C@]2(C)[C@H]1O [Oxendolone, 16β-ethyl-17β-hydroxy-4-estren-3-one]
inhibition at 100 µM [1]: 43 ± 18% | inhibition at 10 µM [1]: 28 ± 28% | inhibitory effect on the reductase activity compared with 4-androsten-3-one-17β-carboxylic acid ([1]; comparison, Table 1): equivalent inhibitory effect on the reductase activity | LD50 ([2]; im, female, intramuscular): > 10000 mg/kg | LD50 ([2]; im, male, intramuscular): > 10000 mg/kg | LD50 ([2]; ip, female, intraperitoneal): 5880 mg/kg | LD50 ([2]; ip, male, intraperitoneal): 6530 mg/kg | decrease of head sebum and mitosis of basal cells of hair [3]: synergistically produce a decrease of head sebum and promote the mitosis of basal cells of hair | LD50 ([4]; im, female, intramuscular): > 10000 mg/kg | LD50 ([4]; im, male, intramuscular): > 10000 mg/kg | LD50 ([4]; ip, female, intraperitoneal): 2980 mg/kg | LD50 ([4]; ip, male, intraperitoneal): 2930 mg/kg | local acute toxicity (hair and scalp; 0.05 ml/cm^2, several times a day): No local acute toxicity was observed | other systemic or local side effect (hair and scalp; in the application schedule): No other systemic or local side effect was observed | inhibition of uptake of testosterone into the cells [5]: inhibit uptake of testosterone into the cells | Rate of inhibition (binding of 5α-DHT with the receptor protein) (5α-DHT receptor protein): 53% | inhibitory effect on the binding of 5α-DHT with the receptor protein compared with 4-androsten-3-one-17β-carboxylic acid (5α-DHT receptor protein; comparison, Table 2): greater | solubility in ethanol (Solubility of oxendolone; ethanol): soluble | solubility in vegetable oils, squalane, alcohols, fatty acids, silicone oils, etc. (Solubility of oxendolone; vegetable oils etc.): dissolved totally or partially | solubility in water (Solubility of oxendolone; water): practically insoluble

Oc1cccc(O)c1 [Resorcinol]
effect of previous treatment, case (9) [6]: no appreciable change
